Where two headings read alike, the source gives them in different places.
Key:
[1] = target: T1, human CB2 (hCB2) receptor (Homo sapiens, UniProt P34972); assay: CB2 binding assay, competitive binding of [3H]WIN 55212-2; conditions: read-out: % inhibition hCB2 receptor, at 1 μM; specific binding of [3H]-WIN55212-2; CHO membranes
T1 construct: expressed in transfected cells; host or cells: CHO (Chinese hamster ovary) cells, membranes
Description: Cell membrane homogenates (15 μg protein) are incubated for 120 min at 37° C. with 0.8 nM [^3H]WIN 55212-2 (the reference standard [Munro, 1993 #1321]) in the absence or presence of the test compound in a buffer containing 50 mM HEPES/Tris HCL (pH 7.4), 5 mM MgCl2, 2.5 mM EGTA, and 0.1% BSA. Nonspecific binding is determined in the presence of 10 μM WIN 55212-2. After being incubated, the samples are filtered rapidly under vacuum through glass fiber filters (GF/B; Packard) presoaked with 0.3% PEI and rinsed several times with ice-cold buffer containing 50 mM Tris HCl (pH 7.4) and 0.5% BSA using a 96-sample cell harvester (Unifilter; Packard). The filters are dried then counted for radioactivity in a scintillation counter (Topcount; Packard) using a scintillation cocktail (Microscint 0; Packard). The results are expressed as a percentage of the inhibition of the control radioligand-specific binding. The reference standard compounds are tested in each experiment at several concentrations to obtain a competition curve from which its IC50 is calculated.
(§1) […] [^3H]-CP55940 at a concentration of 0.5 nM and [^3H]-WIN55212 at a concentration of 0.8 nM were used as radioligands for hCB1 and hCB2 assays, respectively. The results are expressed as a percent inhibition of control specific binding. Compounds which displaced the radioligand by more than 50% for either hCB1 or hCB2 receptors were arbitrary chosen for functional activity determination.

[2] = target: T2, human CB1 (hCB1) receptor (Homo sapiens, UniProt P21554); assay: CB1 binding assay, competitive binding of [3H]CP 55940; conditions: at 1 μM; specific binding of [3H]-CP55940; CHO membranes
T2 construct: expressed in transfected cells; host or cells: CHO (Chinese hamster ovary) cells, membranes
T2 sequence (P21554 whole entry): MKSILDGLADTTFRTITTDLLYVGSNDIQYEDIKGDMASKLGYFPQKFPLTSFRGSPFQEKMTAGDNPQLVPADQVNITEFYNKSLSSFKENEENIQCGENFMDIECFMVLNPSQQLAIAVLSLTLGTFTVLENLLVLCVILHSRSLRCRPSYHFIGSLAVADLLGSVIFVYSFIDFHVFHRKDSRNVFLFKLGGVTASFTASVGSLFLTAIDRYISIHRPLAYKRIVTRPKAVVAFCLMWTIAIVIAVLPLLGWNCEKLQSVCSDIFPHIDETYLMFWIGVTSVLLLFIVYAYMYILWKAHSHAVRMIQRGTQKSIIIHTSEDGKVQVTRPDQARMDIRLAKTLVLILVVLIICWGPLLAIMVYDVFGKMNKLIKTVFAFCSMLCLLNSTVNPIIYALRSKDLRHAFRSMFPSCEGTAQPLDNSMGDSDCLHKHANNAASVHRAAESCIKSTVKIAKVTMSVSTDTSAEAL
Description: Cell membrane homogenates (25 μg protein) are incubated for 120 min at 37° C. with 0.5 nM [^3H]CP 55940 (the reference standard [Rinaldi-Carmona, 1996 #1320]) in the absence or presence of the test compound in a buffer containing 50 mM Tris HCl (pH 7.4), 5 mM MgCl2, 2.5 mM EDTA, and 0.3% bovine serum albumin (BSA). […]
as §1

[3] = target: T3, hCB2 receptor (Homo sapiens, UniProt P34972); assay: CB2 functional assay, [35S]GTP-γ-S binding; assay type: biochemical
T3 construct: purchased ES-111-MG; host or cells: CHO membrane extracts
T3 sequence (P34972 whole entry): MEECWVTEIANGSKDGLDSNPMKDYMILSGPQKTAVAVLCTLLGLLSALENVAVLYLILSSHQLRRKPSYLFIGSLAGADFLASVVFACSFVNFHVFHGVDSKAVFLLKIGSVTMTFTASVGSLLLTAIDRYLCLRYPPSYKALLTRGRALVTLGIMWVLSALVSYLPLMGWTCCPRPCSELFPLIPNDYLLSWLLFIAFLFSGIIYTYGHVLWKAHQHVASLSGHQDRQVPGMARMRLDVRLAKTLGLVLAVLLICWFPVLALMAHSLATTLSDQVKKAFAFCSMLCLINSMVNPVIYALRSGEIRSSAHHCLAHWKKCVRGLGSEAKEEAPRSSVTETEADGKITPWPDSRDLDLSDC
Description: (§2) A dose response curve was generated at eight concentrations in duplicate on CB1 and CB2 in light of reference agonists.
(§3) Membranes (CB1, ES-110-MG or CB2, ES-111-MG) are mixed with GDP (volume:volume) and incubated for at least […] on ice. In parallel, […] are mixed with the beads (volume:volume) just before starting the reaction. The following reagents are successively added in the wells of an Optiplate: 50 μl of ligand, 20 μl of the membranes:GDP mix, 10 μl of assay buffer for agonist testing and 20 μl of the […]: beads mix. The plates are covered with a topseal, shaken on an orbital shaker for 2 min, and then incubated between 30 to 60 min at room temperature. Then the plates are centrifuged for 10 min at 2000 rpm, incubated at room temperature between 1 to 4 hours and counted for 1 min with a PerkinElmer TopCount reader.
(§4) Functional activity for acyl hydrazone was evaluated using [^35S]GTP-γ-S assay in CHO membrane extracts expressing recombinant hCB1 receptor or hCB2 receptor. The assay relies on the binding of [^35S]GTP-γ-S, a radiolabeled nonhydrolyzable GTP analogue, to the G protein upon binding of an agonist of the G-protein-coupled receptor. In this system, agonists stimulate [^35S]GTP-γ-S binding whereas neutral antagonist have no effect and inverse agonists decrease [^35S]GTP-γ-S basal binding.
(§5) CB1 and CB2 assay data are presented as the mean of two determinations. […] For replicate determinations, the maximum variability tolerated in the test was of ±20% around the average of the replicates.

[4] = target: CB1 (Homo sapiens, UniProt P21554); assay: CB1 functional assay, [35S]GTP-γ-S binding; assay type: biochemical; set-up: purchased ES-110-MG; host or cells: CHO membrane extracts; conditions: Table 10, repeated experiment
Sequence of CB1 (P21554 whole entry): as the sequence (P21554 whole entry) above
Description: as §2, §3, §4, §5

[5] = Table 9, mean of two determinations, read-out: [35S]GTP-γ-S hCB2 EC50 (nM ± SEM)
[6] = Table 9, relative to the efficacy of CP 55,940
[7] = Table 10, repeated experiment, read-out: [35S]GTP-γ-S hCB2 EC50

T1 sequence (P34972 whole entry): as the sequence (P34972 whole entry) above

## CCCCCCN1C(=O)/C(=N\NC(=O)c2ccccc2)c2cccc(C)c21 [Example 28, N′-[(3Z)-1-hexyl-7-methyl-2-oxo-1,2-dihydro-3H-indol-3-ylidene]benzohydrazide]
[1]
  inhibition at 1 µM: 68 ± 3.7%
[2]
  inhibition at 1 µM: 67 ± 1.6%
[3]; [5]
  EC50: 84 ± 2.2 nM
[3]; [6]
  Emax: 34.2%

## CCCCCCN1C(=O)/C(=N\NC(=O)c2ccccc2)c2cccc(Cl)c21 [Example 29, N′-[(3Z)-7-chloro-1-hexyl-2-oxo-1,2-dihydro-3H-indol-3-ylidene]benzohydrazide]
[1]
  inhibition at 1 µM: 29 ± 4.5%
[2]
  inhibition at 1 µM: 60 ± 1%
[3]; [5]
  EC50: 645.5 ± 1.3 nM
[3]; [6]
  Emax: 64.8%

## CCCCCCN1C(=O)/C(=N\NC(=O)c2ccccc2)c2cccc(I)c21 [Example 30, N′-[(3Z)-1-hexyl-7-iodo-2-oxo-1,2-dihydro-3H-indol-3-ylidene]benzohydrazide]
[1]
  inhibition at 1 µM: 66 ± 3.2%
[2]
  inhibition at 1 µM: 61 ± 2.5%
[3]; read-out: [35S]GTP-γ-S hCB2 Emax (%), Table 9 footnote a: Efficacy determined at 3 μM, relative to CP 55,940
  Emax at 3 µM: 55%

## CCCCCCN1C(=O)/C(=N\NC(=O)c2ccccc2)c2cc(F)ccc21 [Example 33, N′-[(3Z)-5-fluoro-1-hexyl-2-oxo-1,2-dihydro-3H-indol-3-ylidene]benzohydrazide]
[1]
  inhibition at 1 µM: 46 ± 1.7%
[2]
  inhibition at 1 µM: 57 ± 0.7%
[3]; [5]
  EC50: 186.9 ± 1.7 nM
[3]; [6]
  Emax: 33.8%

## COc1ccc2c(c1)N(CC1CCCCC1)C(=O)/C2=N\NC(=O)c1ccccc1 [Example 37, N′-[(3Z)-1-(cyclohexylmethyl)-6-methoxy-2-oxo-1,2-dihydro-3H-indol-3-ylidene]benzohydrazide]
[4]
  Emax: 40.8%
[4]; read-out: [35S]GTP-γ-S hCB1 EC50
  EC50: 61.2 nM
[3]; Table 10, repeated experiment
  Emax: -82%
[3]; [7]
  EC50: 18 nM

## CCCCCN1C(=O)/C(=N\NC(=O)c2ccccc2)c2ccc(OC)cc21 [Example 39, N′-[(3Z)-6-methoxy-1-pentyl-2-oxo-1,2-dihydro-3H-indol-3-ylidene]benzohydrazide]
[3]; Table 10, repeated experiment
  Emax: -108%
[3]; [7]
  EC50: 5.8 nM

## CCCCN1C(=O)/C(=N\NC(=O)c2ccccc2)c2ccc(OC)cc21 [Example 40, N′-[(3Z)-1-butyl-6-methoxy-2-oxo-1,2-dihydro-3H-indol-3-ylidene]benzohydrazide]
[3]; Table 10, repeated experiment
  Emax: -95%
[3]; [7]
  EC50: 85 nM

## COc1ccc2c(c1)N(CCC1CCCCC1)C(=O)/C2=N\NC(=O)c1ccccc1 [Example 41, N′-[(3Z)-1-(2-cyclohexylethyl)-6-methoxy-2-oxo-1,2-dihydro-3H-indol-3-ylidene]benzohydrazide]
[3]; Table 10, repeated experiment
  Emax: -104%
[3]; [7]
  EC50: 540 nM
